This assay addresses T1, Human ENaC δ, β and γ subunit (Homo sapiens, UniProt P51168+P51170+P51172).
T1 construct: expressed in transfected cells; host or cells: Xenopus laevis (African clawed frog) oocytes injected with cRNA
T1 sequence (P51172 1-802): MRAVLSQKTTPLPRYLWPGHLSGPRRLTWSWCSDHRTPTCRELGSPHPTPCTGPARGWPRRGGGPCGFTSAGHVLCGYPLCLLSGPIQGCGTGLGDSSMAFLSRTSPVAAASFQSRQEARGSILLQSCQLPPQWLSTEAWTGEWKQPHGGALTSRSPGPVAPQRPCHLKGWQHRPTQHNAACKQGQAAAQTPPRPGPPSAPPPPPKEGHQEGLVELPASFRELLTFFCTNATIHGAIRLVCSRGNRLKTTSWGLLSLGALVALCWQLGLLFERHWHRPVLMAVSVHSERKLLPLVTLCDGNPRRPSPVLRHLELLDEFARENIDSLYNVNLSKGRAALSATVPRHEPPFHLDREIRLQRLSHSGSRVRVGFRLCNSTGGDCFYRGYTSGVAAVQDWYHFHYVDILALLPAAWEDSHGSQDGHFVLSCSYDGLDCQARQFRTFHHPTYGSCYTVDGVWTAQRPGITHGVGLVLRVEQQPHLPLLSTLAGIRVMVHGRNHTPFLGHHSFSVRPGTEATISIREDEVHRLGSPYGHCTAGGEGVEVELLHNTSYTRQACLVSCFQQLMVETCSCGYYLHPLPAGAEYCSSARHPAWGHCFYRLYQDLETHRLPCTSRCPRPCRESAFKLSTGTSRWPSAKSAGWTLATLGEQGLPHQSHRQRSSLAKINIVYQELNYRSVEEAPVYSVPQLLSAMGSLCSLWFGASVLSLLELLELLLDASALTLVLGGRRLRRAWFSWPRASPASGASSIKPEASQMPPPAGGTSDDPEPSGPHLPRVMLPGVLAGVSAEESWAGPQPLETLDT
T1 sequence (P51168 1-640): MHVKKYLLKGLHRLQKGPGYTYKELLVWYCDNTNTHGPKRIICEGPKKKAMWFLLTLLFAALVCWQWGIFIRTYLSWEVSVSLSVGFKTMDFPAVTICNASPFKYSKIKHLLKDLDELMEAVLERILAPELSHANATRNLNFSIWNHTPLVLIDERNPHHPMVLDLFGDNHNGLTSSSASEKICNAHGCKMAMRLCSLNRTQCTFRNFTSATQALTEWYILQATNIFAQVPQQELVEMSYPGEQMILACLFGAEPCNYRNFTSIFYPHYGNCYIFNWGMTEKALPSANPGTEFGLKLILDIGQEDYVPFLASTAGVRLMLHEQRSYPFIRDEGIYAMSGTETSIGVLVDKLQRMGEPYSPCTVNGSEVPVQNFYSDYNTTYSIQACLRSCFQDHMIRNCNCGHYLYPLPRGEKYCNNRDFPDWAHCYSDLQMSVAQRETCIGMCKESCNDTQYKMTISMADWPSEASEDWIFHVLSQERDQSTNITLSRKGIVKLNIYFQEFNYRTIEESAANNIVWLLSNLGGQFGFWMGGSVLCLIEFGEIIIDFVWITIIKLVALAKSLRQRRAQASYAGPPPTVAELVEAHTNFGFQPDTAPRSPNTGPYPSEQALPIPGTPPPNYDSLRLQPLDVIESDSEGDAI
T1 sequence (P51170 1-649): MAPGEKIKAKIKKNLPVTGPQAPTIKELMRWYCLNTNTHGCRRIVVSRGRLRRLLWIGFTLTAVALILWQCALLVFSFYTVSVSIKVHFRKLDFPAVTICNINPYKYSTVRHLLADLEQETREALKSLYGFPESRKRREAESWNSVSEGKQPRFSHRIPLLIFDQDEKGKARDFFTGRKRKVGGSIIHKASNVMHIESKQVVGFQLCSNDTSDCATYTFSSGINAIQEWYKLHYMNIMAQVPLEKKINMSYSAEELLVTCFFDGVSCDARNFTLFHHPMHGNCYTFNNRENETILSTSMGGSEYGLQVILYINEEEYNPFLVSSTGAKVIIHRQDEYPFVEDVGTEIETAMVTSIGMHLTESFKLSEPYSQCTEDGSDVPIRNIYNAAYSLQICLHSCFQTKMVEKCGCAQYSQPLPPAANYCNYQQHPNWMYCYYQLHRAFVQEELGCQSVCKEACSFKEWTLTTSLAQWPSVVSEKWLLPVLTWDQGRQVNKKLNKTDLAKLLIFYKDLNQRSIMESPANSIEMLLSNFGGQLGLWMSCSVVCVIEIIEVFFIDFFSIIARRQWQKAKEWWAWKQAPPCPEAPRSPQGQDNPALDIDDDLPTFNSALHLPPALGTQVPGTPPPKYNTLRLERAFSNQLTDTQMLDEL
As to the kind of experiment: Measurement of ENaC activation potency (MED) in ENaC-expressing oocyte, Two Electrode Voltage Clamp. It is filed as cell-based. The settings on record: minimum effective dose at which current started to increase; ENaC-expressing African clawed frog oocyte; smaller MED = higher ENaC activation potency. How it is done: ENaC activation current value, namely, the inward current in ENaC-expressing oocyte was measured as follows.
According to the method described in Motonao Nakamura, Takao Shimizu: Experiment of African clawed frog oocyte, Experimental Medicine Vol. 11, No. 3, 224-232 (1993), oocyte was collected from African clawed frog, […], and the current value was measured by a Two Electrode Voltage Clamp technique. In the present invention, ND96 (96 mM NaCl, 2 mM KCl, 1 mM MgCl2, 5 mM Hepes, 1.8 mM CaCl2, pH 7.6) was used instead of MBS buffer in the above-mentioned document. Injector NANOLITER 2000 manufactured by World Precision Instruments was used for microinjection, OpusXpress 6000A manufactured by Molecular Devices was used for current value measurement by a Two Electrode Voltage Clamp technique, and Clampfit 10.2 software manufactured by Molecular Devices was used for data analysis.
Human ENaC δ, β and γ subunit genes shown by SEQ ID NOs: 1, 2 and 3, respectively, in the Sequence Listing were each cloned into a plasmid vector, and used as a template DNA for cRNA synthesis. cRNA was synthesized using MEGAscript kit manufactured by Ambion and according to the method of the manual of the manufacturer.
A mixture of the same amount of ENaC […] cRNA (0.4 to 0.8 μg/μL), and β and γ subunits cRNA (0.4 μg/μL) was injected into the oocyte of African clawed frog at […] per oocyte, and the oocyte was cultured for 16 hr-72 hr. Thereafter, the oocyte was set on a measuring apparatus OpusXpress 6000A, the electrodes were inserted into the oocyte, the voltage was clamped at a level lower by −30 mV than the resting membrane potential by a Two Electrode Voltage Clamp technique, and the current value was measured.
To measure the ENaC activation potency, oocyte was stimulated with each test compound, and the minimum effective dose (hereinafter to be abbreviated as MED) of the compound at the time point when the electric current started to increase was measured. In this case, whichever smaller value of the minimum effective dose of the stimulation compound that increased the current value by not less than 10%, and the minimum effective concentration of the compound that increased, by not less than 25%, the electric current increase value due to the stimulation by 5 μM capsazepine (CAS NO.: 138977-28-3), as compared to the current value before addition of the compound and without stimulation, was taken as MED. A smaller MED means higher ENaC activation potency.
Each test compound was directly dissolved in ND96, or first dissolved in dimethyl sulfoxide (DMSO) to 100 mM, and then prepared by diluting the solution with ND96 to a concentration used for the evaluation. The concentration of the test compound in ND96 was prepared to various concentrations within the range of 0.1 nM to 300 μm.
ND96 as a perfusion fluid was flown at a rate of 0.5 mL/min through the measuring apparatus OpusXpress 6000A on which ENaC-expressing oocyte was set, the perfusion fluid was temporarily stopped every 3 minutes to add a test compound solution (0.25 mL) dissolved in ND96 at a rate of 0.5 mL/min. In this way, the test compound was contacted with ENaC-expressing oocyte, and whether ENaC is activated by the compound was examined by measuring the current value. After addition of the test compound, feeding of the perfusion fluid was resumed to wash away the compound to be ready for the next addition of the compound.
The compound was added successively from a low concentration to a high concentration to stimulate ENaC-expressing oocyte. The concentrations actually added was, for example, 1 nM, 3 nM, 10 nM, 30 nM, 100 nM, 300 nM; 1 μM, 3 μM, 10 μm, 30 μm, 100 μm, 300 μm; 1.2 μM, 6 μM, 30 μm, 150 μm of one test compound. The compound was added from low concentrations to high concentrations at 3 min intervals. […]
On the technique in general: Two-electrode voltage clamp holds a large cell at a set potential and records current.
Molecule `S=C(CCc1ccccc1)NCCc1ccccc1` [Example 81] registered an MED of 10 µM.

Molecule `CC(C)(C)OC(=O)NCC(=O)Nc1cccc(CNC(=S)NCCc2ccccc2)c1` [Example 82, tert-butyl (3-{[3-(2-phenylethyl)thioureido]methyl}phenylcarbamoyl)methylcarbamate] showed an MED of 3 µM.

With `COC[C@@H](Cc1ccccc1)NC(=S)NCc1ccccc1` [Example 84], the MED was 10 µM.

Molecule `C[C@@H](NC(=S)NCCc1ccccc1O)c1ccccc1` [Example 85] gave an MED of 0.6 µM.

The molecule `CS(=O)(=O)Nc1cccc(CNC(=S)NCCc2ccccc2)c1` [Example 86, 1-[3-(mesylamino)benzyl]-3-(2-phenylethyl)thiourea] showed an MED of 1 µM.

`Cc1ccc(S(=O)(=O)Nc2cccc(CNC(=S)NCCc3ccccc3)c2)cc1` [Example 87]: the MED stood at 10 µM.

`Oc1ccccc1CCNC(=S)N[C@@H]1CCc2ccccc21` [Example 88] displayed an MED of 0.6 to 1 µM.

On to `C[C@@H](NC(=S)NCCc1ccccc1O)c1cccc(O)c1` [Example 89, 1-[2-(2-hydroxyphenyl)ethyl]-3-[(R)-1-(3-hydroxyphenyl)ethyl]thiourea], for which the MED is 0.06 µM.

`C[C@@H](NC(=S)NNCc1ccccc1O)c1ccccc1` [Example 90]: the MED was found to be 1 µM.

With `C[C@@H](NC(=S)Nc1c(O)cccc1O)c1ccccc1` [Example 91], the MED came out at 1 µM.

Regarding `COc1cccc(OC)c1/C=N/NC(=S)N[C@H](C)c1ccccc1` [Example 92, (E)-1-(2,6-dimethoxybenzylidene)-4-((R)-1-phenylethyl)thiosemicarbazide], the MED came to 30 µM.

`COc1cccc(OC)c1CNNC(=S)N[C@H](C)c1ccccc1` [Example 93, 1-(2,6-dimethoxybenzyl)-4-((R)-1-phenylethyl)thiosemicarbazide] registered an MED of 30 µM.

The molecule `C[C@@H](NC(=S)N/N=C/c1c(O)cccc1O)c1ccccc1` [Example 94] showed an MED of 3 to 10 µM.

`C[C@@H](NC(=S)NNCc1c(O)cccc1O)c1ccccc1` [Example 95] displayed an MED of 3 to 10 µM.

In turn, `COC(=O)c1ccccc1/C=N/NC(=S)N[C@H](C)c1ccccc1` [Example 96, methyl 2-{(E)-[4-((R)-1-phenylethyl)thiosemicarbazono]methyl}benzoate] returned an MED of 30 µM.

Take `CC[C@@H](NC(=S)NCCc1ccccc1O)c1ccccc1` [Example 98]: the MED was 1 µM.

The molecule `CCC[C@@H](NC(=S)NCCc1ccccc1O)c1ccccc1` [Example 99] gave an MED of 10 µM.

Molecule `COc1ccc([C@@H](C)NC(=S)NCCc2ccccc2O)cc1OC` [Example 100] had an MED of 1 µM.

In turn, `O=C(O)[C@@H](NC(=S)NCCc1ccccc1)c1ccccc1` [Example 101] registered an MED of 1 µM.

As for `O=C(O)[C@@H](NC(=S)NCCc1ccccc1O)c1ccccc1` [Example 102, (S)-2-{3-[2-(2-hydroxyphenyl)ethyl]thioureido}-2-phenylacetic acid], the MED was 1 µM.

Turning to `NC(=O)[C@@H](NC(=S)NCCc1ccccc1)c1ccccc1` [Example 103], the MED stood at 3 µM.

On to `C[C@@H](NC(=S)NCCc1ccccc1O)c1ccc(O)c(O)c1` [Example 104], for which the MED was in the range of 0.06 to 0.1 µM.

The molecule `C[C@@H](NC(=S)NCC(O)c1ccccc1O)c1cccc(O)c1` (stereo partly drawn) [Example 105, 1-[2-(2-hydroxyphenyl)-2-hydroxyethyl]-3-[(R)-1-(3-hydroxyphenyl)ethyl]thiourea] returned an MED of 0.06 to 0.1 µM.

With `C[C@@H](NC(=S)NC(Cc1ccccc1O)C(=O)O)c1cccc(O)c1` (stereo partly drawn) [Example 106, 2-{3-[(R)-1-(3-hydroxyphenyl)ethyl]thioureido}-3-(2-hydroxyphenyl)propanoic acid], the MED is 0.1 to 0.3 µM.

Turning to `C[C@@H](NC(=S)N[C@H](Cc1ccccc1)C(=O)O)c1cccc(O)c1` [Example 107], the MED was 0.3 µM.

`C[C@@H](NC(=S)N[C@@H](Cc1ccccc1)C(=O)O)c1cccc(O)c1` [Example 108] showed an MED of 0.3 µM.

`C[C@@H](NC(=S)N[C@H](Cc1ccc(O)cc1)C(=O)O)c1cccc(O)c1` [Example 109]: the MED was found to be 0.3 µM.

Turning to `C[C@@H](NC(=S)N[C@@H](Cc1ccc(O)cc1)C(=O)O)c1cccc(O)c1` [Example 110], the MED amounted to 0.3 µM.

The values above are taken from patent US20140004243A1, “SALTY TASTE ENHANCER” (AJINOMOTO CO., INC., priority 2011, published 2014).
